Results on 47 compounds are retold here after patent US12421225B2, “Heteroaromatic amide derivative and medicament containing the same” (KAKEN PHARMACEUTICAL CO., LTD., priority 2018, dated 2025).

pIC50: −log10 of the molar value.

For the test, the target named is human Nav1.7 (Homo sapiens (Human), UniProt Q15858). Nature of the test: Human Nav1.7 inhibitory activity evaluation (automated patch clamp QPatch16X, HEK293A cells stably expressing human Nav1.7 and human Navβ1). Type of test: cell-based. The following applies: human Nav1.7, automated patch clamp. The essentials: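 QPatch16X whole-cell recordings at room temperature from HEK293A cells stably expressing human Nav1.7 with Navβ1, CsF-based internal solution, pH 7.4 external, 0.1% DMSO. From −100 mV holding, protocol included a 15 s hold at a potential inactivating ~30-40% of channels; IC50 from inward current at the second −10 mV pulse.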
Sequence of human Nav1.7 (Q15858 whole entry): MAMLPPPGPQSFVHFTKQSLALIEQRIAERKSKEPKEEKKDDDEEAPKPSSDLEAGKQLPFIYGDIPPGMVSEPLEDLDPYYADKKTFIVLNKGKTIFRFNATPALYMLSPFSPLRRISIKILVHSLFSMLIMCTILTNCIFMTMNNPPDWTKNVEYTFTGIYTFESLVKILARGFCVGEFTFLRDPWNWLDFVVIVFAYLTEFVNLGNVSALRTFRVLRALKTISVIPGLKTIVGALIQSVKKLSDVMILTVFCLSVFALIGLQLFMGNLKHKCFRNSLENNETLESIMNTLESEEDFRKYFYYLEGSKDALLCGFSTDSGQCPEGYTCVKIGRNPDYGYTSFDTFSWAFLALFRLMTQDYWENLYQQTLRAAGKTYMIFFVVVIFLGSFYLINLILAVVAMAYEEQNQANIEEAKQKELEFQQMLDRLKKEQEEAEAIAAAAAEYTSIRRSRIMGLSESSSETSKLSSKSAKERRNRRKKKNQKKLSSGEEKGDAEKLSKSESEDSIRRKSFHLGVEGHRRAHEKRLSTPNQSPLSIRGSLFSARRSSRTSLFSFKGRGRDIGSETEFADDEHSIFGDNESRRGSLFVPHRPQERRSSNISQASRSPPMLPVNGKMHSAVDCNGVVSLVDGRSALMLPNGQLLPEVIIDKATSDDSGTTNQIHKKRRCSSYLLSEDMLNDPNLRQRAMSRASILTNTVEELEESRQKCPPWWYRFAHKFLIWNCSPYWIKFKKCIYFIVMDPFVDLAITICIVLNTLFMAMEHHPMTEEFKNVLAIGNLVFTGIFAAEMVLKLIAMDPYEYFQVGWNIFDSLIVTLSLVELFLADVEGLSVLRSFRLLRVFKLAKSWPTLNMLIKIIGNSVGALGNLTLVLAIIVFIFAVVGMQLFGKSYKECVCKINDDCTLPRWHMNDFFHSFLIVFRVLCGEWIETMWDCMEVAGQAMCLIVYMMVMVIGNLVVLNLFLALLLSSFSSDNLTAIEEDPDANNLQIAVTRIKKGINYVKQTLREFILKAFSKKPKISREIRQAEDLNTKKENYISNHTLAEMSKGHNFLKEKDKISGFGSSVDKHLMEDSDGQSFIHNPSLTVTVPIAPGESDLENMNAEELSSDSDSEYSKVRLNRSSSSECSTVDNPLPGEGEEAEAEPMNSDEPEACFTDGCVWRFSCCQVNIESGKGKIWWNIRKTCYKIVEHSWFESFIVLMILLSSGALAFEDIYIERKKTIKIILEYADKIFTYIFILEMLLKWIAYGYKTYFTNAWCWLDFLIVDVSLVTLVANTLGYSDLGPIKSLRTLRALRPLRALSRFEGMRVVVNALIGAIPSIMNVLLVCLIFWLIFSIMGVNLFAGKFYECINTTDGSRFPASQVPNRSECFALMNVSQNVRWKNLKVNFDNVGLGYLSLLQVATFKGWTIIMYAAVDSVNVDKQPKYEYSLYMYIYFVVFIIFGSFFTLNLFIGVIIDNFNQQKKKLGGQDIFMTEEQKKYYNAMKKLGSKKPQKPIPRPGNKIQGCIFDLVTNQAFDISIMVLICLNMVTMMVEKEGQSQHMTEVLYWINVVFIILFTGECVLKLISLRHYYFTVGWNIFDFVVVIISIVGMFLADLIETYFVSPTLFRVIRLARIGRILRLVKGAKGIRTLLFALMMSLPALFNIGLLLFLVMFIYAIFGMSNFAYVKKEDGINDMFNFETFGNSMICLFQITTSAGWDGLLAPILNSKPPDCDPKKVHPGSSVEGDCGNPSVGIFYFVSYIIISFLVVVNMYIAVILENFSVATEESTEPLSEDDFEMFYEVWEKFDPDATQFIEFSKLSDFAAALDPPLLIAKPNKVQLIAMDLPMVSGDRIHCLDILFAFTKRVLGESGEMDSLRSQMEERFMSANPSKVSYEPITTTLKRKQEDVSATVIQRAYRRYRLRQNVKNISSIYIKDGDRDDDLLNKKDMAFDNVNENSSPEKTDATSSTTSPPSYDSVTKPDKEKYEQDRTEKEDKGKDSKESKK
Sequence of human Nav1.7 (Q07699 19-218 partner): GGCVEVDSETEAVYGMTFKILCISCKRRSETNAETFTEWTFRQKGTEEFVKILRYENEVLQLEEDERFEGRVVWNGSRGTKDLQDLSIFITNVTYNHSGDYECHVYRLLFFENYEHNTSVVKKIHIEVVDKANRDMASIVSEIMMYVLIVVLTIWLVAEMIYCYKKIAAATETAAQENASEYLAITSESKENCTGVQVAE
In turn, `O=C(N[C@H]1COc2ccc(COCC(F)(F)F)cc2C1)c1cc2n(n1)CCC(C(F)(F)F)CO2` (some centres unmarked) [Example 632] showed a pIC50 above 6.00. The compound `O=C(N[C@H]1COc2ccc(CC(F)F)cc2C1)c1cc2n(n1)CCC(C(F)(F)F)CO2` (some centres unmarked) [Example 633] showed a pIC50 above 6.00.

Consider `O=C(N[C@H]1COc2ccc(C(F)(F)F)cc2C1F)c1cc2n(n1)CCC(COCC(F)(F)F)CO2` (some centres unmarked) [Example 634], for which the pIC50 was above 6.00.

Turning to `O=C(N[C@H]1COc2ccc(COCC(F)(F)F)cc2C1)c1cc2n(n1)CCC(COCC(F)F)O2` (some centres unmarked) [Example 635], the pIC50 is above 6.00.

In turn, `O=C(N[C@H]1COc2ccc(C(F)(F)F)cc2C1F)c1cc2n(n1)CCN(C1CCOCC1)C2` (some centres unmarked) [Example 637] had a pIC50 above 5.00. `O=C(N[C@H]1COc2ccc(COCC(F)(F)F)cc2C1)c1cc2n(n1)CCC(C1COCCO1)O2` (some centres unmarked) [Example 638] had a pIC50 above 5.00. For `O=C(NC1COc2ccc(F)c(F)c2C1)c1cc2n(n1)CC(CCOCC1CC1)O2` (centres unmarked) [Example 639] the value was above 6.00; for `O=C(NC1COc2ccc(F)c(F)c2C1)c1cc2n(n1)CC(CCCOCC(F)F)O2` (centres unmarked) [Example 640], above 6.00; for `O=C(N[C@H]1COc2ccc(C(F)(F)F)cc2C1F)c1cc2n(n1)CCN(CC1CCOCC1)C2` (some centres unmarked) [Example 642], above 5.00.

`O=C(N[C@H]1COc2ccc(C(F)(F)F)cc2C1F)c1cc2n(n1)CCN(C1COC1)C2` (some centres unmarked) [Example 643] had a pIC50 above 5.00. Regarding `O=C(N[C@H]1COc2ccc(C(F)(F)F)cc2C1)c1cc2n(n1)CCN(CCOCC(F)(F)F)C2` [Example 644], the pIC50 is above 6.00. As to `O=C(N[C@H]1COc2ccc(C(F)(F)F)cc2C1F)c1cc2n(n1)CCN(CCOCC(F)(F)F)C2` (some centres unmarked) [Example 645], the pIC50 is above 6.00. The value for `O=C(N[C@H]1COc2ccc(C(F)(F)F)cc2C1F)c1cc2n(n1)CCN(CC1CCO1)C2` (some centres unmarked) [Example 646] was above 6.00; that for `O=C(N[C@H]1COc2ccc(C(F)(F)F)cc2C1F)c1cc2n(n1)CCN(CCC(F)(F)F)C2` (some centres unmarked) [Example 647] was above 6.00.

Regarding `N#Cc1ccc2c(c1)C(F)[C@@H](NC(=O)c1cc3n(n1)CCC(C(F)(F)F)O3)CO2` (some centres unmarked) [Example 648], the pIC50 is above 5.00. `N#Cc1ccc2c(c1)C(F)[C@@H](NC(=O)c1cc3n(n1)CCC(C(F)(F)F)CO3)CO2` (some centres unmarked) [Example 649] gave a pIC50 above 5.00.

Turning to `N#Cc1ccc2c(c1)C(F)[C@@H](NC(=O)c1cc3n(n1)CC(CCOCC1CC1)O3)CO2` (some centres unmarked) [Example 650], the pIC50 is above 6.00. For the compound `O=C(N[C@H]1COc2ccc(COCC(F)(F)F)cc2C1)c1cc2n(n1)CCC(C1CCCO1)O2` (some centres unmarked) [Example 651], the pIC50 was above 6.00. The compound `O=C(N[C@H]1COc2ccc(C(F)(F)F)cc2C1O)c1cc2n(n1)CCN(CCOCC1CC1)C2` (some centres unmarked) [Example 652] showed a pIC50 above 5.00.

Compound `O=C(N[C@H]1COc2ccc(C(F)(F)F)cc2C1)c1cc2n(n1)CCN(CC1CCOCC1)C2` [Example 653] showed a negative logarithm of the IC50 (pIC50) above 5.00. The value for `O=C(N[C@H]1COc2ccc(C(F)(F)F)cc2C1F)c1cc2n(n1)CCN(CCOCC1CC1)C2` (some centres unmarked) [Example 654] was above 6.00; that for `O=C(N[C@H]1COc2ccc(COCC(F)(F)F)cc2C1)c1cc2n(n1)CCC(CC1CCOCC1)O2` (some centres unmarked) [Example 655] was above 6.00. In the case of `CCC1(O)CCn2nc(C(=O)N[C@H]3COc4ccc(C(F)(F)F)cc4C3F)cc2OC1` (some centres unmarked) [Example 656], the negative logarithm of the IC50 (pIC50) was above 5.00. As to `O=C(N[C@H]1COc2ccc(C(F)(F)F)cc2C1)c1cc2n(n1)CC(COCCOCC(F)(F)F)O2` (some centres unmarked) [Example 657], the pIC50 was above 6.00. For `O=C(N[C@H]1COc2ccc(Cl)cc2C1)c1cc2n(n1)CC(COCCOCC(F)(F)F)O2` (some centres unmarked) [Example 658], the pIC50 is above 6.00.

In the case of `N#Cc1ccc2c(c1)C[C@@H](NC(=O)c1cc3n(n1)CC(COCCOCC(F)(F)F)O3)CO2` (some centres unmarked) [Example 659], the pIC50 was above 5.00. Regarding `O=C(N[C@H]1COc2ccc(C(F)(F)F)cc2C1O)c1cc2n(n1)CC(COCCOCC(F)(F)F)O2` (some centres unmarked) [Example 660], the pIC50 is above 5.00.

Regarding `O=C(N[C@H]1COc2ccc(COCC(F)(F)F)cc2C1)c1cc2n(n1)CC(COCCOCC(F)(F)F)O2` (some centres unmarked) [Example 661], the pIC50 is above 6.00.

Consider `O=C(N[C@H]1COc2ccc(Cl)cc2C1)c1cc2n(n1)CCC(COCCOCC(F)(F)F)O2` (some centres unmarked) [Example 662], for which the negative-log IC50 (pIC50) was above 6.00.

The compound `O=C(N[C@H]1COc2ccc(C(F)(F)F)cc2C1)c1cc2n(n1)CCC(COCCOCC(F)(F)F)O2` (some centres unmarked) [Example 663] showed a pIC50 above 6.00.

The compound `N#Cc1ccc2c(c1)C[C@@H](NC(=O)c1cc3n(n1)CCC(COCCOCC(F)(F)F)O3)CO2` (some centres unmarked) [Example 664] had a pIC50 above 5.00. The value for `O=C(N[C@H]1COc2ccc(C(F)(F)F)cc2C1F)c1cc2n(n1)CCC(COCCOCC(F)(F)F)O2` (some centres unmarked) [Example 665] was above 6.00; that for `O=C(N[C@H]1COc2ccc(C(F)(F)F)cc2C1)c1cc2n(n1)CCN(CCOCC(F)F)C2` [Example 666] was above 5.00; that for `O=C(N[C@H]1COc2ccc(COCC(F)(F)F)cc2C1)c1cc2n(n1)CCN(CCOCC(F)(F)F)C2` [Example 667] was above 6.00. Take `O=C(N[C@H]1COc2ccc(CC(F)F)cc2C1)c1cc2n(n1)CCC(C1CCCO1)O2` (some centres unmarked) [Example 668]: the pIC50 is above 5.00. For `O=C(N[C@H]1COc2ccc(C(F)(F)F)cc2C1)c1cc2n(n1)CCN(CC1CCOC1)C2` (some centres unmarked) [Example 669], the negative logarithm of the IC50 (pIC50) is above 5.00. As for `O=C(N[C@H]1COc2ccc(C(F)(F)F)cc2C1F)c1cc2n(n1)CCN(C1CCOC1)C2` (some centres unmarked) [Example 670], the pIC50 was above 6.00. Compound `CC(C)OCCN1CCn2nc(C(=O)N[C@H]3COc4ccc(C(F)(F)F)cc4C3F)cc2C1` (some centres unmarked) [Example 671] had a pIC50 above 6.00. For `O=C(N[C@H]1COc2ccc(C(F)(F)F)cc2C1F)c1cc2n(n1)CCN(CC1CCCOC1)C2` (some centres unmarked) [Example 672], the pIC50 was above 6.00. The compound `O=C(N[C@H]1COc2ccc(C(F)(F)F)cc2C1F)c1cc2n(n1)CCN(CC1CCOC1)C2` (some centres unmarked) [Example 673] showed a pIC50 above 6.00. `O=C(N[C@H]1COc2ccc(CC(F)F)cc2C1)c1cc2n(n1)CCC(CC1CCOCC1)O2` (some centres unmarked) [Example 674] had a pIC50 above 5.00. Compound `O=C(N[C@H]1COc2ccc(C(F)(F)F)cc2C1F)c1cc2n(n1)CC(COCCOCC(F)(F)F)O2` (some centres unmarked) [Example 676] gave a pIC50 above 6.00. The compound `O=C(N[C@H]1COc2ccc(C(F)(F)F)cc2C1O)c1cc2n(n1)CCN(CCOCC(F)(F)F)C2` (some centres unmarked) [Example 677] had a pIC50 above 5.00. The value for `O=C(N[C@H]1COc2ccc(C(F)(F)F)cc2C1F)c1cc2n(n1)CCN(CCOCC(F)F)C2` (some centres unmarked) [Example 678] was above 6.00. `O=C(N[C@H]1COc2ccc(C(F)(F)F)cc2C1F)c1cc2n(n1)CCC(OCC(F)(F)F)CO2` (some centres unmarked) [Example 679] gave a pIC50 above 6.00.

The compound `O=C(N[C@H]1COc2ccc(C(F)(F)F)cc2C1)c1cc2n(n1)CCC(OCCOCC(F)(F)F)CO2` (some centres unmarked) [Example 680] showed a pIC50 above 5.00. Turning to `O=C(N[C@H]1COc2ccc(Cl)cc2C1)c1cc2n(n1)CCC(OCCOCC(F)(F)F)CO2` (some centres unmarked) [Example 682], the pIC50 is above 5.00.

As usually defined, the pIC50 is the IC50 on a negative log10 scale, so that one unit is a factor of ten. Low values mean a high IC50, high ones a low IC50.
